In the supplement of paper PMC10307832:

Legend:
Assay in all cases: relative viability (nuclei count vs DMSO), 5 days (fraction); higher = more cells survive
[1] = test system: ChaGo-K-1
Summary of the method: (§1)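 A single step with final 0.05% Triton X-100, 1% formaldehyde and 1 ug/ml Hoechst fixed the cells and stained nuclei 5 days after treatment. Lung cancer cell lines in 1536-well plates had been treated by pin tool the day after seeding with one drug alone or a fixed anchor-drug dose plus five library-drug doses (not always all listed) in √10 steps, and nuclei were counted on 4× images. Relative viability is the ratio of nuclei in treated wells to nuclei in vehicle wells, taken as the median of duplicate plates.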

[2] = test system: EMC-BAC-2
Summary of the method: as §1

[3] = test system: HCC-366
Summary of the method: as §1

[4] = test system: HCC-78
Summary of the method: as §1

[5] = test system: HOP-62
Summary of the method: as §1

[6] = test system: LC-2-ad
Summary of the method: as §1

[7] = test system: LK-2
Summary of the method: as §1

[8] = test system: NCI-H1355
Summary of the method: as §1

[9] = test system: NCI-H1734
Summary of the method: as §1

[10] = test system: NCI-H1993
Summary of the method: as §1

[11] = test system: NCI-H2009
Summary of the method: as §1

[12] = test system: NCI-H2085
Summary of the method: as §1

[13] = test system: NCI-H2347
Summary of the method: as §1

[14] = test system: NCI-H2405
Summary of the method: as §1

[15] = test system: NCI-H3122
Summary of the method: as §1

[16] = test system: NCI-H596
Summary of the method: as §1

[17] = test system: NCI-H838
Summary of the method: as §1

[18] = test system: PC-14
Summary of the method: as §1

[19] = test system: RERF-LC-KJ
Summary of the method: as §1

[20] = test system: SK-MES-1
Summary of the method: as §1

[21] = test system: SW 1573
Summary of the method: as §1

In the case of `O=c1[nH]c2ccccc2n1C1CCN(CCCC(c2ccc(F)cc2)c2ccc(F)cc2)CC1` [Pimozide] + Nc1ncn([C@H]2C[C@H](O)[C@@H](CO)O2)c(=O)n1 [Decitabine] (partner 2 µM), the relative viability ([1]; first compound 0.08 µM) is reported as 0.515, the relative viability ([1]; first compound 0.253 µM) is reported as 0.453 and the relative viability ([1]; first compound 0.8 µM) is reported as 0.5. It also gave a relative viability ([1]; first compound 2.53 µM) of 0.546, a relative viability ([1]; first compound 8 µM) of 0.546 and a relative viability ([2]; first compound 0.08 µM) of 0.956. The relative viability ([2]; first compound 0.253 µM) was 0.918, the relative viability ([2]; first compound 0.8 µM) was 0.911 and the relative viability ([2]; first compound 2.53 µM) was 0.953. The relative viability ([2]; first compound 8 µM) was 0.983, the relative viability ([3]; first compound 0.08 µM) was 0.324 and the relative viability ([3]; first compound 0.253 µM) was 0.34. It also gave a relative viability ([3]; first compound 0.8 µM) of 0.285, a relative viability ([3]; first compound 2.53 µM) of 0.346 and a relative viability ([3]; first compound 8 µM) of 0.296. The relative viability ([4]; first compound 0.08 µM) was 0.735, the relative viability ([4]; first compound 0.8 µM) was 0.671 and the relative viability ([4]; first compound 2.53 µM) was 0.671. The relative viability ([4]; first compound 8 µM) was 0.702, the relative viability ([5]; first compound 0.08 µM) was 0.231 and the relative viability ([5]; first compound 0.253 µM) was 0.228. For the same molecule, the relative viability ([5]; first compound 2.53 µM) was 0.245, the relative viability ([5]; first compound 8 µM) was 0.244 and the relative viability ([6]; first compound 0.08 µM) was 0.776. For the same molecule, the relative viability ([6]; first compound 0.253 µM) was 0.697, the relative viability ([6]; first compound 0.8 µM) was 0.854 and the relative viability ([6]; first compound 2.53 µM) was 0.868. The relative viability ([6]; first compound 8 µM) was 0.837, the relative viability ([7]; first compound 0.08 µM) was 0.25 and the relative viability ([7]; first compound 0.253 µM) was 0.289. For the same molecule, the relative viability ([7]; first compound 0.8 µM) was 0.28, the relative viability ([7]; first compound 2.53 µM) was 0.296 and the relative viability ([7]; first compound 8 µM) was 0.33. It also gave a relative viability ([8]; first compound 0.08 µM) of 0.345, a relative viability ([8]; first compound 0.253 µM) of 0.332 and a relative viability ([8]; first compound 0.8 µM) of 0.339. The relative viability ([8]; first compound 2.53 µM) was 0.339, the relative viability ([8]; first compound 8 µM) was 0.337 and the relative viability ([9]; first compound 0.08 µM) was 0.51. For the same molecule, the relative viability ([9]; first compound 0.253 µM) was 0.489, the relative viability ([9]; first compound 0.8 µM) was 0.525 and the relative viability ([9]; first compound 2.53 µM) was 0.431. It also gave a relative viability ([9]; first compound 8 µM) of 0.509, a relative viability ([10]; first compound 0.08 µM) of 0.561 and a relative viability ([10]; first compound 0.253 µM) of 0.56. For the same molecule, the relative viability ([10]; first compound 0.8 µM) was 0.566, the relative viability ([10]; first compound 2.53 µM) was 0.556 and the relative viability ([10]; first compound 8 µM) was 0.642. For the same molecule, the relative viability ([11]; first compound 0.08 µM) was 0.442, the relative viability ([11]; first compound 0.253 µM) was 0.374 and the relative viability ([11]; first compound 0.8 µM) was 0.327. For the same molecule, the relative viability ([11]; first compound 2.53 µM) was 0.436, the relative viability ([11]; first compound 8 µM) was 0.412 and the relative viability ([12]; first compound 0.08 µM) was 0.545. The relative viability ([12]; first compound 0.253 µM) was 0.544, the relative viability ([12]; first compound 0.8 µM) was 0.573 and the relative viability ([12]; first compound 2.53 µM) was 0.551. It also gave a relative viability ([12]; first compound 8 µM) of 0.585, a relative viability ([13]; first compound 0.08 µM) of 0.651 and a relative viability ([13]; first compound 0.253 µM) of 0.589. It also gave a relative viability ([13]; first compound 0.8 µM) of 0.574, a relative viability ([13]; first compound 2.53 µM) of 0.594 and a relative viability ([13]; first compound 8 µM) of 0.559. It also gave a relative viability ([14]; first compound 0.08 µM) of 0.71, a relative viability ([14]; first compound 0.253 µM) of 0.686 and a relative viability ([14]; first compound 0.8 µM) of 0.695. The relative viability ([14]; first compound 2.53 µM) was 0.69, the relative viability ([14]; first compound 8 µM) was 0.669 and the relative viability ([15]; first compound 0.08 µM) was 0.435. For the same molecule, the relative viability ([15]; first compound 0.253 µM) was 0.392, the relative viability ([15]; first compound 0.8 µM) was 0.418 and the relative viability ([15]; first compound 2.53 µM) was 0.413. For the same molecule, the relative viability ([15]; first compound 8 µM) was 0.416, the relative viability ([16]; first compound 0.08 µM) was 0.97 and the relative viability ([16]; first compound 0.253 µM) was 0.931. It also gave a relative viability ([16]; first compound 0.8 µM) of 0.986, a relative viability ([16]; first compound 2.53 µM) of 0.85 and a relative viability ([16]; first compound 8 µM) of 1.08. For the same molecule, the relative viability ([17]; first compound 0.08 µM) was 0.487, the relative viability ([17]; first compound 0.253 µM) was 0.395 and the relative viability ([17]; first compound 0.8 µM) was 0.42. For the same molecule, the relative viability ([17]; first compound 2.53 µM) was 0.43, the relative viability ([17]; first compound 8 µM) was 0.469 and the relative viability ([18]; first compound 0.253 µM) was 0.221. It also gave a relative viability ([18]; first compound 0.8 µM) of 0.228, a relative viability ([18]; first compound 2.53 µM) of 0.144 and a relative viability ([18]; first compound 8 µM) of 0.231. The relative viability ([19]; first compound 0.08 µM) was 0.674, the relative viability ([19]; first compound 0.253 µM) was 0.562 and the relative viability ([19]; first compound 0.8 µM) was 0.63. For the same molecule, the relative viability ([19]; first compound 2.53 µM) was 0.401, the relative viability ([19]; first compound 8 µM) was 0.544 and the relative viability ([20]; first compound 0.08 µM) was 0.389. The relative viability ([20]; first compound 0.253 µM) was 0.39, the relative viability ([20]; first compound 0.8 µM) was 0.355 and the relative viability ([20]; first compound 2.53 µM) was 0.454. It also gave a relative viability ([20]; first compound 8 µM) of 0.774, a relative viability ([21]; first compound 0.08 µM) of 0.555 and a relative viability ([21]; first compound 0.253 µM) of 0.52. It also gave a relative viability ([21]; first compound 0.8 µM) of 0.499, a relative viability ([21]; first compound 2.53 µM) of 0.371 and a relative viability ([21]; first compound 8 µM) of 0.384.
